Results reported in patent US20080064027A1, “TEL/Etv6-mediated inhibition of cell proliferation” (priority 2002, published 2008).
Entries after “also recorded” stand apart in the source; their conditions may differ.

Tests used:
TEL [1] = test: TEL protein level by Western blotting; type: cell-based; details: 4HT or 4HT/OSM treated; relative to control LacZ siRNA
Protocol: Protein analysis was carried out by Western blotting. In brief, cells were harvested in NP40 extraction buffer (50 mM Tris (pH 7.5), 1 mM EGTA, 5 mM EDTA, 120 mM NaCl, 1% NP40, 2 mM sodium orthovanadate, 50 mM sodium fluoride, 20 mM ? -glycerophosphate, 10 μg/ml leupeptin, 10 μg/ml aprotinin, and 0.5 mM phenylmethylsulfonyl fluoride) for 5 min on ice. The lysates were clarified by centrifugation and protein concentrations were determined using the Bio-Rad protein assay reagent (Bio-Rad Laboratories Gmbh, Munich, Germany). For immunoprecipitaton, equal amounts of proteins were incubated with Stat3 (C-20) from Santa Cruz Biotechnology (Santa Cruz, Calif.) for 1 hr. Following SDS-polyacrylamide gel eletrophoresis (SDS-PAGE), proteins were blotted onto polyvinylidene difluoride membranes (Boehringer Mannheim, Mannheim, Germany). After blocking with 10% horse serum (Life Technologies, Inc.) in 50 mM Tris pH 7.5, 150 mM NaCl, 0.05% Tween 20, filters were probed with specific antibodies; c-TEL, Stat3 (C-20) from Santa Cruz Biotechnology (Santa Cruz, Calif.), phospho-Stat3 (Tyr 705) from Cell Signaling Technology (Beverly, Mass.). Proteins were visualized with peroxidase-coupled secondary antibodies using the enhanced chemiluminescence detection system (Amersham Pharmacia Biotech, Little Chalfont, United Kingdom).

[2] = test system: Stat3 transcriptional activity; test: APRE-driven luciferase reporter assay; type: cell-based; details: for Stat3-dependent transcription of luciferase, increase over control: TEL expression reduced by siRNA
Description: Luciferase assays are used to verify that the Stat3-ER construct is transcriptionally active. For this purpose, a luciferase reporter gene driven by the acute-phase response element (APRE) of the alpha 2-macroglobulin gene, a target for Stat1 and Stat3, was used.
Cells (2×10^6 cells/6 well dish) were transfected with a reporter plasmid containing four copies of acute phase responsible element (APRE) upstream of the minimal junB promoter linked to the luciferase gene (T Hirano, EMBO Journal, 1996, 15, 3651-3658), together with the internal control plasmid pRL-SV40 from Promega (Madison, Wis.). Twenty-four hours after the transfection, cells were either left unstimulated or stimulated with OSM (PeproTechEC, London, United Kingdom), 4-hydroxytamoxifen (4HT; Sigma, St. Louis, Mo.) or a combination of 4HT/OSM for 24 hours. The preparation of cell extracts and measurement of luciferase activities were carried out using the Dual-Luciferase reporter assay system from Promega (Madison, Wis.) in an Autolumat LB 953 (Berthold Technologies, Wildbad, Germany). Changes in firefly luciferase activity were expressed relative to Renilla luciferase activity in the same sample.

[3] = test system: Stat3-ER-expressing A375 cells; test: Cell proliferation after siRNA transfection; type: cell-based
Description: This Example follows cell proliferation of Stat3-ER-expressing A375 cells treated with 4HT or a combination of 4HT and OSM, then cell proliferation in the absence or in the presence of siRNA to C/EBPd.
The following 21-mer oligoribonucleotide pairs were used:
This Example follows cell proliferation of Stat3-ER-expressing A375 cells treated with 4HT or a combination of 4HT and OSM, and in the absence or in the presence of siRNA to TEL.

TEL [4] = test: TEL expression in human cancer cell lines; type: cell-based
Description: TEL is usually expressed as two protein isoforms corresponding to initiation of TEL mRNA translation at ATG codon 1 and 43 (TEL and TEL43). […] To ascertain if TEL is a natural target of Stat3, we examined its expression in human cancer cell lines in response to OSM or IL-6. […] However, TEL expression was unchanged in other cell lines, including the prostate cancer cells PC3 and LNCaP and MDA-MB-468 breast cancer cells, even though it was expected that Stat3 is activated in each of these cell lines by IL-6/OSM treatment.

Stat3 = test: TEL-Stat3 interaction, immunoprecipitation from nuclear extracts; type: binding
Protocol: Since the TEL DNA-binding domain is not required for repression of Stat3 activity, this Example tests the possibility that TEL interacts directly with Stat3. Extracts from nuclear-enriched fractions were prepared from control or OSM-stimulated A375 cells. […] Endogenous TEL was present in Stat3 immunoprecipitates and the levels of TEL associating with Stat3 increased in OSM-treated compared to control-treated nuclear extracts. Conversely, Stat3 is present in a TEL-containing complex, pulled down through an immobilized GGM-containing oligonucleotide, which is a binding site for TEL.

[5] = test system: Stat3 transcriptional activity; test: Stat3 luciferase reporter assay with transfected TEL or TEL mutants; type: cell-based
Protocol: In brief, TEL- or control, pcDNA3.1-transfected Stat3ERA375 cells, treated with 4HT were cultured in the presence or absence of Trichostatin A (TSA; 250 nM), a general HDAC inhibitor, essentially as described above.
Briefly, Stat3-ER-A375 cells and HEK 293 cells were transfected with the different TEL mutants, a Stat3 reporter plasmid and a Renilla plasmid.

[6] = target: Signal transducer and activator of transcription 3 (Stat3) (UniProt P40763); test: cell-based or functional assay
C/EBPdelta mRNA = test: C/EBPdelta expression (quantitative PCR); type: cell-based
Protocol: A LacZ siRNA was used as control. The designed RNA oligonucleotides were ‘blasted’ against the GENBANK/EMBL databank to ensure gene specificity. The RNA oligonucleotides were obtained commercially. Transfection with expression vectors was carried out 1 day after the siRNA transfection using Effectene.

Chain of Signal transducer and activator of transcription 3 (Stat3) (P40763 2-770 limits assumed): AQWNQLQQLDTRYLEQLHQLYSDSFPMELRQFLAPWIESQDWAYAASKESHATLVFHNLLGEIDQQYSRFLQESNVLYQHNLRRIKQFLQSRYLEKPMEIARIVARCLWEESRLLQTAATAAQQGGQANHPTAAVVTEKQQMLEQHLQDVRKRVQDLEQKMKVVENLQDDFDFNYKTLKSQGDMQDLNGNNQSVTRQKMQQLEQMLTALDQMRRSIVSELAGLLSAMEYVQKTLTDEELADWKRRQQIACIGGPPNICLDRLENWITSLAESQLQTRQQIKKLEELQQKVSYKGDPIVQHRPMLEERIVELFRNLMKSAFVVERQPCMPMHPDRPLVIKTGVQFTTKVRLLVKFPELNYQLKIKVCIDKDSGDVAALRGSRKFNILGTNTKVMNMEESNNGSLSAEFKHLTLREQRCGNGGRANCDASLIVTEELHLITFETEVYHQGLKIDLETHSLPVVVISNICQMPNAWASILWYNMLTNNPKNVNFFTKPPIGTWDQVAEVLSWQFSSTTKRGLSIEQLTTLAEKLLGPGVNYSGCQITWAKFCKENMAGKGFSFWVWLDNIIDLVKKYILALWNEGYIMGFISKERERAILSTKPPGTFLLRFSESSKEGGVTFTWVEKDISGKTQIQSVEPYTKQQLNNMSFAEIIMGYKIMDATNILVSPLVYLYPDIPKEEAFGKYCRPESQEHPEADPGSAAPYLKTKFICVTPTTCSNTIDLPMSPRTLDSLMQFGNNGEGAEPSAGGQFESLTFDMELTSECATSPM

TEL siRNA: siRNA nt 540-560, SEQ ID NO:4 and SEQ ID NO:5 (chain 1 CCCUCCCACCAUUGAACUGTT; chain 2 CAGUUCAAUGGUGGGAGGGTT; combined DNA/RNA strands, DNA positions not given here, further chemistry not given here)
TEL expression in the presence of TEL siRNA (TEL [1]): largely prevented; also recorded: strongly decreased | Stat3-dependent transcription of luciferase, increase over control ([2]; induced by 4HT): ~16 fold | Stat3-dependent transcription of luciferase, increase over control ([2]; induced by OSM): ~18 fold | anti-proliferative effects of Stat3 versus control LacZ siRNA treated cultures ([3]; 4HT and OSM treated Stat3ER A375 cells): stronger | Stat3-mediated inhibition of A375 cell proliferation in the presence of TEL siRNA ([3]; about 28% without TEL siRNA): about 40%

interleukin 6 [IL-6]
TEL expression (TEL [4]; PC3, LNCaP prostate cancer cells and MDA-MB-468 breast cancer cells): unchanged | TEL expression (TEL [4]; T47D and SKBr-3 breast cancer cells, DU145 prostate carcinoma cells, HepG2 hepatoma-derived cells): significantly increased | cooperative effect with 4HT on luciferase activity ([2]; Stat3-ER-expressing A375 cells): same cooperative effect with 4HT

TEL: ets variant gene 6 (TEL oncogene) product, overexpressed by transfection
interaction with Stat3 (Stat3): still interact with Stat3 | reduction in Stat3 activity by overexpression of TEL ([5]; in response to OSM, Stat3ER A375 cells and HEK293 cells): > 70%

CC(/C=C/C(=O)NO)=C\[C@@H](C)C(=O)c1ccc(N(C)C)cc1 [TSA, Trichostatin A, reference compound]
effect on repression of Stat3 activity by TEL ([5]; TSA 250 nM, TEL-transfected 4HT-stimulated Stat3ERA375 cells): prevented the repression of Stat3 activity by TEL | effect on Stat3 mediated transcriptional activity ([5]; TSA 250 nM, pcDNA3.1-transfected cells, 4HT): had no effects

TEL/Etv6 (ets variant gene 6; TEL oncogene) (from UniProt P41212 1-452)
Stat3 activity (APRE luciferase reporter) in response to OSM on overexpression of TEL [6]: > 70 % reduction

C/EBPdelta siRNA: siRNA duplex nt 844-864, SEQ ID NO:2 and SEQ ID NO:3 (chain 1 GCAGCUGCCCAGCCCGCCCTT; chain 2 GGGCGGGCUGGGCAGCUGTT; combined DNA/RNA strands, DNA positions not given here, further chemistry not given here)
C/EBPdelta expression in the presence of siRNA (C/EBPdelta mRNA): significantly reduced expression | inhibition of cell proliferation in the presence of siRNA ([3]; about 40-45% with control siRNA): about 25% | reduction of the inhibition of A375 cell proliferation ([3]; average of three independent experiments, versus control siRNA): about 40%

B1: TEL delta 442-452: TEL deletion mutant (protein)
chain: MSETPAQCSIKQERISYTPPESPVPSYASSTPLHVPVPRALRMEEDSIRLPAHLRLQPIYWSRDDVAQWLKWAENEFSLRPIDSNTFEMNGKALLLLTKEDFRYRSPHSGDVLYELLQHILKQRKPRILFSPFFHPGNSIHTQPEVILHQNHEEDNCVQRTPRPSVDNVHHNPPTIELLHRSRSPITTNHRPSPDPEQRPLRSPLDNMIRRLSPAERAQGPRPHQENNHQESYPLSVSPMENNHCPASSESHPKPSSPRQESTRVIQLMPSPIMHPLILNPRHSVDFKQSRLSEDGLHREGKPINLSHREDLAYMNHIMVSVSPPEEHAMPIGRIADCRLLWDYVYQLLSDSRYENFIRWEDKESKIFRIVDPNGLARLWGNHKNRTNMTYEKMSRALRHYYKLNIIRKEPGQRLLFRFMKTPDEIMSGRTDRLEHLESQE
repression of 4HT- or OSM-induced Stat3 transcriptional activity ([5]; Stat3-ER-A375 cells and HEK 293 cells, 24 h): is not able to repress Stat3 activity
